Usually pIC50 stands for the negative decadic logarithm of the IC50, by convention in mol/L.

Structures are written as SMILES. pIC50: −log10 of the molar value.

T1 sequence (P41279 30-398): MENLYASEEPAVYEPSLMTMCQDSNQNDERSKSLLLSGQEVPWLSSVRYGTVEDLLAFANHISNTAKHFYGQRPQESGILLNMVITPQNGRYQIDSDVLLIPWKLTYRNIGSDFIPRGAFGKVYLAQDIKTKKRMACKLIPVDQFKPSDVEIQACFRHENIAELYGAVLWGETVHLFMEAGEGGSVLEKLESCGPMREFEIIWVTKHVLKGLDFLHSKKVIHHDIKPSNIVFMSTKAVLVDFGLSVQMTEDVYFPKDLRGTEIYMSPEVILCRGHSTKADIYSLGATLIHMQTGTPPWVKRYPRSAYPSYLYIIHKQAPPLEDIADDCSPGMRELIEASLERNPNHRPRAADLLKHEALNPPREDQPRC
Sequence of Tpl2 (P41279 whole entry): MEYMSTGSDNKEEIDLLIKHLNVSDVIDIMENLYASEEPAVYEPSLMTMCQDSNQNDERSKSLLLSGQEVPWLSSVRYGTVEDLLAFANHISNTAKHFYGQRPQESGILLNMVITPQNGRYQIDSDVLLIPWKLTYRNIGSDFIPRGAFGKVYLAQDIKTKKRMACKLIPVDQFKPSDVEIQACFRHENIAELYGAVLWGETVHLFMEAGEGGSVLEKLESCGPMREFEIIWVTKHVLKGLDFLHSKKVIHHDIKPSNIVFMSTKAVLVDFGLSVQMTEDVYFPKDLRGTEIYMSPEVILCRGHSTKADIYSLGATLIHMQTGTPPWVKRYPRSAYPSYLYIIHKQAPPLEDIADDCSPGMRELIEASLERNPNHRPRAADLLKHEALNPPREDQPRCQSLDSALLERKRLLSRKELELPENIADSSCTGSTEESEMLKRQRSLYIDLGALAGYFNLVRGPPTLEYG

The first assay addresses Tpl2 (Homo sapiens, UniProt P41279).
Assay: not given
The conditions noted are these: background statement; cited from earlier work.
Consider `CN[C@@H]1C[C@H]2O[C@@](C)([C@@H]1OC)n1c3ccccc3c3c4c(c5c6ccccc6n2c5c31)C(=O)NC4` [staurosporine], for which the “inhibition of Tpl2” value was “not inhibited”.

Another assay addresses T1, human Cot/Tpl2 kinase (Homo sapiens, UniProt P41279).
T1 construct: human Cot/Tpl2 kinase construct encoding residues 30-398; 6His (N); made in house; host or cells: Sf9 insect cells, baculovirus system (BD Biosciences)
Nature of the assay: Tpl2/Cot kinase assay: GST-MEK1 phosphorylation detected by ELISA (DELFIA Eu). In kind it is biochemical. The conditions noted are these: Tpl2/Cot kinase, GST-MEK1 substrate, 50 uM ATP, 1 h at 30° C.; Table 2. The gist of the method: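 His-tagged human Tpl2 from Sf9 cells, Ni-affinity and size-exclusion purified (monomer). 0.4 nM Tpl2 with 35 nM GST-MEK1, 50 uM ATP, MOPS pH 7.2, 1% DMSO, 1 h at 30° C; EDTA stop. MEK1 Ser217/221 phosphorylation detected by anti-phospho-MEK1 and Eu-labelled secondary ELISA; IC50 fitted.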
(In general: An ELISA detects its analyte on a solid surface through an enzyme-linked reagent.)
In turn, `N#Cc1cnc2c(Cl)cc(NCc3cc(Br)co3)cc2c1Nc1ccc(F)c(Cl)c1` [Example 1024] had a pIC50 of under 5.52.

`N#Cc1cnc2c(Cl)cc(NCc3cn(Cc4cncc(C(O)(C(F)(F)F)C(F)(F)F)c4)nn3)cc2c1Nc1ccc(F)c(Cl)c1` [Example 1025] had a pIC50 of 6.04.

`Cn1cc(CNc2cc(Cl)c3ncc(C#N)c(Nc4ccc(F)c(Cl)c4)c3c2)cn1` [Example 1026]: the pIC50 was 6.54.

`N#Cc1cnc2c(Cl)cc(NCc3cn(C4CCN(CC5CC5)CC4)nn3)cc2c1Nc1ccc(F)c(Cl)c1` [Example 1027] had a pIC50 of 8.10.

The compound `N#Cc1cnc2c(Cl)cc(N(Cc3cn(C4CCN(CC5CC5)CC4)nn3)CC3CC3)cc2c1Nc1ccc(F)c(Cl)c1` [Example 1028] showed a pIC50 of 6.39.

For `N#Cc1cnc2c(Cl)cc(N(Cc3cn(C4CCN(C5CCC5)CC4)nn3)C3CCC3)cc2c1Nc1ccc(F)c(Cl)c1` [Example 1029], the pIC50 was 6.54.

As for `N#Cc1cnc2c(Cl)cc(NCc3cn(C4CCCN(C5CCC5)CC4)nn3)cc2c1Nc1ccc(F)c(Cl)c1` (stereo not drawn) [Example 1030], the pIC50 is 7.92.

In turn, `CC(C)(C)OC(=O)N1CCC(O)(c2cncc(CNc3cc(Cl)c4ncc(C#N)c(Nc5ccc(F)c(Cl)c5)c4c3)c2)CC1` [Example 1031] showed a pIC50 of 6.80.

For `N#Cc1cnc2c(Cl)cc(NCc3cncc(C4(O)CCNCC4)c3)cc2c1Nc1ccc(F)c(Cl)c1` [Example 1032], the pIC50 was under 5.52.

`CC(C)N1CCC(O)(c2cncc(CNc3cc(Cl)c4ncc(C#N)c(Nc5ccc(F)c(Cl)c5)c4c3)c2)CC1` [Example 1033]: the pIC50 was 6.30.

The compound `CCN1CCC(O)(c2cncc(CNc3cc(Cl)c4ncc(C#N)c(Nc5ccc(F)c(Cl)c5)c4c3)c2)CC1` [Example 1034] gave a pIC50 of 6.40.

As for `CCNC1CCC(n2cc(CNc3cc(Cl)c4ncc(C#N)c(Nc5ccc(F)c(Cl)c5)c4c3)nn2)CC1` (stereo not drawn) [Example 1035], the pIC50 was 7.44.

As for `CNC1CCC(n2cc(CNc3cc(Cl)c4ncc(C#N)c(Nc5ccc(F)c(Cl)c5)c4c3)nn2)CC1` (stereo not drawn) [Example 1036], the negative-log IC50 (pIC50) is 7.40.

`CC(C)NC1CCC(n2cc(CNc3cc(Cl)c4ncc(C#N)c(Nc5ccc(F)c(Cl)c5)c4c3)nn2)CC1` (stereo not drawn) [Example 1037] gave a pIC50 of 7.70.

For `N#Cc1cnc2c(Cl)cc(NCc3cn(C4CCC(NC5CCCC5)CC4)nn3)cc2c1Nc1ccc(F)c(Cl)c1` (stereo not drawn) [Example 1038], the pIC50 was 7.77.

`N#Cc1cnc2c(Cl)cc(NCc3cn(C4CCC(Nc5ccccn5)CC4)nn3)cc2c1Nc1ccc(F)c(Cl)c1` (stereo not drawn) [Example 1039] gave a pIC50 of 7.00.

On to `N#Cc1cnc2c(Cl)cc(NCc3cn(C4CCC(NC5CC5)CC4)nn3)cc2c1Nc1ccc(F)c(Cl)c1` (stereo not drawn) [Example 1040], for which the negative logarithm of the IC50 (pIC50) is 7.77.

The compound `N#Cc1cnc2c(Cl)cc(NCc3cn(C4CCC(O)CC4)nn3)cc2c1Nc1ccc(F)c(Cl)c1` (stereo not drawn) [Example 1041] had a pIC50 of 8.24.

In the case of `N#Cc1cnc2c(Cl)cc(NCc3cn(CCc4cncc(C(O)(C(F)(F)F)C(F)(F)F)c4)nn3)cc2c1Nc1ccc(F)c(Cl)c1` [Example 1042], the pIC50 was 6.89.

The compound `CN1C(C)(C)CC(n2cc(CNc3cc(Cl)c4ncc(C#N)c(Nc5ccc(F)c(Cl)c5)c4c3)nn2)CC1(C)C` [Example 1043] had a pIC50 of 7.28.

As to `CC(C)N1CCC(c2cc(CNc3cc(Br)c4ncc(C#N)c(Nc5ccc(F)c(Cl)c5)c4c3)[nH]n2)CC1` [Example 1044], the pIC50 is 6.07.

`CCN1CCC(c2cc(CNc3cc(Br)c4ncc(C#N)c(Nc5ccc(F)c(Cl)c5)c4c3)[nH]n2)CC1` [Example 1045] gave a pIC50 of 6.21.

With `CC(C)(C)OC(=O)N1C2CCC1CC(n1cc(CNc3cc(Cl)c4ncc(C#N)c(Nc5ccc(F)c(Cl)c5)c4c3)nn1)C2` (stereo not drawn) [Example 1046], the pIC50 is 6.52.

As for `N#Cc1cnc2c(Cl)cc(NCc3cncc(Br)c3)cc2c1Nc1ccc(F)c(Cl)c1` [Example 1047], the pIC50 was 6.33.

In turn, `N#Cc1cnc2c(Cl)cc(NCc3cncc(C4(O)CCOCC4)c3)cc2c1Nc1ccc(F)c(Cl)c1` [Example 1048] gave a pIC50 of 6.35.

Compound `CC(C)N1C2CCC1CC(n1cc(CNc3cc(Cl)c4ncc(C#N)c(Nc5ccc(F)c(Cl)c5)c4c3)nn1)C2` (stereo not drawn) [Example 1049] gave a pIC50 of 6.38.

As to `CS(=O)(=O)N1C2CCC1CC(n1cc(CNc3cc(Cl)c4ncc(C#N)c(Nc5ccc(F)c(Cl)c5)c4c3)nn1)C2` (stereo not drawn) [Example 1050], the pIC50 was 7.34.

Consider `CC(C)(C)OC(=O)N1CC=C(c2cncc(CNc3cc(Cl)c4ncc(C#N)c(Nc5ccc(F)c(Cl)c5)c4c3)c2)CC1` [Example 1051], for which the pIC50 was under 5.52.

`CCNC(=O)N1C2CCC1CC(n1cc(CNc3cc(Cl)c4ncc(C#N)c(Nc5ccc(F)c(Cl)c5)c4c3)nn1)C2` (stereo not drawn) [Example 1052] showed a pIC50 of 7.64.

Compound `CC(=O)N1C2CCC1CC(n1cc(CNc3cc(Cl)c4ncc(C#N)c(Nc5ccc(F)c(Cl)c5)c4c3)nn1)C2` (stereo not drawn) [Example 1053] gave a pIC50 of 7.62.

As to `CC(C)N1CC=C(c2cncc(CNc3cc(Cl)c4ncc(C#N)c(Nc5ccc(F)c(Cl)c5)c4c3)c2)CC1` [Example 1054], the pIC50 was 5.89.

The compound `CCCN1C2CCC1CC(n1cc(CNc3cc(Cl)c4ncc(C#N)c(Nc5ccc(F)c(Cl)c5)c4c3)nn1)C2` (stereo not drawn) [Example 1055] showed a pIC50 of 8.10.

Consider `N#Cc1cnc2c(Cl)cc(NCc3cncc(C4=CCNCC4)c3)cc2c1Nc1ccc(F)c(Cl)c1` [Example 1056], for which the pIC50 is 6.06.

With `N#Cc1cnc2c(Cl)cc(NCc3cn(C4CC5CCC(C4)N5CC4CC4)nn3)cc2c1Nc1ccc(F)c(Cl)c1` (stereo not drawn) [Example 1057], the pIC50 is 7.96.

`CC(C)CN1C2CCC1CC(n1cc(CNc3cc(Cl)c4ncc(C#N)c(Nc5ccc(F)c(Cl)c5)c4c3)nn1)C2` (stereo not drawn) [Example 1058] had a pIC50 of 7.15.

With `N#Cc1cnc2c(Cl)cc(NCc3cn(C4CC5CCC(C4)N5C=O)nn3)cc2c1Nc1ccc(F)c(Cl)c1` (stereo not drawn) [Example 1059], the pIC50 is 7.85.

The compound `CC1(O)CCC(n2cc(CNc3cc(Cl)c4ncc(C#N)c(Nc5ccc(F)c(Cl)c5)c4c3)nn2)CC1` (stereo not drawn) [Example 1060] showed a pIC50 of 7.35.

On to `CC(C)N1CCC(c2cncc(CNc3cc(Cl)c4ncc(C#N)c(Nc5ccc(F)c(Cl)c5)c4c3)c2)CC1` [Example 1061], for which the pIC50 was 6.22.

The values above are taken from patent US20060264460A1 (Wyeth, priority 2005, published 2006).
